Source: publication PMC7579925, “Complementary NAD^+ replacement strategies fail to functionally protect dystrophin-deficient muscle” (Skeletal Muscle, 2020)

Biological target: T1, CD38 (Mus musculus, UniProt P56528)
T1 construct: recombinant soluble (extracellular) domain, expressed in and purified from Pichia pastoris
T1 sequence (P56528 45-304 limits assumed): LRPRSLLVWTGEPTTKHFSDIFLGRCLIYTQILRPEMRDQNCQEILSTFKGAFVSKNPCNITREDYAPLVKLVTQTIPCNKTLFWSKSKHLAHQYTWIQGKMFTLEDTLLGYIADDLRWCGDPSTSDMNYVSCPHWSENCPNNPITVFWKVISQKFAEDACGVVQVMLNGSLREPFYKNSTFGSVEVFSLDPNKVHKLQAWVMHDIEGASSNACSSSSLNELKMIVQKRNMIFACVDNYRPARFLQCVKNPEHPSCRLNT
Experiment: colorimetric base-exchange (transglycosidation) assay, dose-response
Assay type: biochemical

IC50: ~ 12 ng/mL
Substance: GSK978A
